Test results: patent EP0098138A2, “Microbial cells and the use thereof to produce oxidation products” (EXXON RESEARCH AND ENGINEERING COMPANY, priority 1982, dated 1984)
Read-outs that look alike come from different tables or passages of the source.

Tests used:
[1] = test system: Propylene-Oxidizing Activity of Arthrobacter sp. (CRL 60 P1) NRRL B-11,315; assay: Effect of inhibitors on propylene-oxidizing activity (propylene oxide formation) of propane-grown cell suspensions; type: cell-based; settings: for inhibition at 1000 µM: Arthrobacter, NRRLB11, 0.25 h
Experimental: (§1) The pH of the nutrient medium was adjusted to 7.0 by the addition of acid or base and 50 ml samples of the nutrient medium were charged into a plurality of 300 ml shake flasks. The shake flasks were inoculated with an innoculating loop of cells from an agar plate containing homogeneous colonies of the microorganisms on the plate (the purity of the isolates was confirmed by microscopic examination). […] In the case of growth on liquid substrates (at 0.3%, v/v), the gaseous phase of the flasks was air. The inoculated flasks were sealed air tight and were incubated on a rotary shaker at 250 rpm and at 30°C for two days until turbidity in the medium had developed.
(§2) The cells were harvested by centrifugation at 12,000 x g. at 4 °C for 15 minutes. The cell pellet was washed twice with a 50 mM phosphate buffer at a pH of 7.0. The washed cells were then suspended in a 50mM phosphate buffer at pH 7.0.
(§3) The gaseous phase of the vials was removed with vacuum and then was replaced with a gas mixture of the oxidative substrate (e.g. ethane) and oxygen at a 1:1 v/v ratio. If a liquid substrate was employed, 5-10 µl of substrate was placed in the vials. […] Samples (3 µl) were withdrawn periodically with a microsyringe and the products were analyzed by gas chromatography (ionization flame detector column) at a column temperature of 100°C to 180 °C and at a carrier gas flow rate of 30 or 35 ml/ min of helium. The various products were identified by retention time comparisons and co-chromatography with authentic standards. […] Protein in the cell suspensions was determined by the method described by […].
(§4) All inhibitors were added at 1mM concentration and the cell suspensions were incubated for 15 min. at 4 °C.

[2] = test system: Propane-Oxidizing Activity of Arthrobacter sp. (CRL 60 P1) NRRL B-11,315; assay: Effect of inhibitors on propane-oxidizing activity (acetone production) of propane-grown cell suspensions; type: cell-based; settings: for inhibition at 1000 µM: Arthrobacter, NRRLB11, 0.25 h
Experimental: as §1, §2, §3, §4

[3] = test system: alkane monooxygenase; assay: Epoxidation of alkenes and styrene by soluble extracts; type: biochemical, Brevibacterium sp. (CRL 56 P6Y) NRRL B-11,319
Experimental: The microorganism Brevibacterium sp. […] The fermentor was inoculated with 2 liters of a culture grown in flasks.
The cells thus grown were washed twice with 25 mM potassium phosphate buffer pH 7.0 and suspended in the same buffer solution containing 5mM MgCl2 and deoxyribonuclease (0.05 mg/ml). […] Disintegrated cell suspensions were centrifuged at 15,000 x g for 15 min. to remove unbroken cells. The supernatant solution was then centrifuged at 40,000 x g for 60 minutes and the supernatant solution therefrom was again centrifuged at 80,000 x g for 60 minutes, yielding the soluble fraction.
Several 3-ml vials at 4°C were charged with 0.2 ml of a reaction mixture consisting of 10 µmoles potassium phosphate buffer pH 7.0, 4 µ cmoles NADH2, and the soluble enzyme fraction obtained above. The gaseous phase of the vials was evacuated by vacuum and replaced with a gas mixture of gaseous oxidation substrate and oxygen (1:1 v/v); in the case of a liquid oxidation substrate, 2 µl of substrate was added. The vials were incubated at 35 °C on a reciprocating water bath shaker at 50 oscillations per minute.
The rate of epoxidation of alkenes and styrene was measured by injecting 1-2 µ1 samples of the reaction mixture into a gas chromatograph immediately after addition of substrate (zero time) and after 5 and 10 min. of incubation. Specific activities were expressed as […] of product formed per 10 min. per mg of protein. With each substrate, control experiments were conducted in the absence of NADH2, in the absence of oxygen, and using boiled extracts.

[4] = type: physicochemical
Experimental: (§5) To determine if the slower reaction rate after 40-60 min of incubation was due to enzymatic or non-enzymatic oxidation of propylene oxide or due to product inhibition, 5 µ moles of propylene oxide was added to viable and to heat-killed cell suspensions in the presence and absence of propylene, and incubated at 30°C.
[…]. The rate of epoxidation of propylene was found not to vary markedly in the pH range from 5 to 9, with the optimum pH about 7. A 5 A mole sample of propylene oxide was added to heat-killed cell suspensions at pH 5, 7 and 9 to test for non-enzymatic degradation of propylene oxide at these pH values.

[5] = test system: Arthrobacter sp. (CRL 60 Pl) NRRL B-11,315; assay: Further oxidation of added propylene oxide by viable cell suspensions; type: cell-based; settings: 5 µ moles added to viable cell suspension, 30°C
From the text: (§6) The following summarizes tests conducted on the optimal conditions for the production of propylene oxide from propylene using cell suspensions of propane-grown Arthrobacter sp. (CRL 60 Pl) NRRL B-11,315 as the representative microorganism strain. It will be understood that these are optimal conditions found for one particular strain and one particular substrate, and the invention is not meant to be bound by them. Conversions of propylene can still be obtained using Arthrobacter sp. (CRL 60 Pl) NRRL B-11,315 by deviating from the optimum indicated below, but with lower yields and conversions.
as §5

[6] = test system: Cell-Free Particulate P(40) Fraction of Arthrobacter sp. (CRL 60 P1) NRRL B-11,315
Experimental: (§9) Cells were harvested during exponential growth by centrifugation at 12,000 x g for 15 min. at 4°C. Cells were washed twice with a 25 mM potassium phosphate buffer of pH 7.0 containing 5mM MgCl2 and were then suspended in the same buffer. The resulting cell suspensions at 4°C were disintegrated by a single passage through a French pressure cell (45 mPa) and centrifuged at 5,000 x g for 15 min to remove unbroken bacteria. […] The particulate fraction [P(40)] was suspended in the same buffer as described above and homogenized at 4°C.
(§10) A 1.0 ml sample containing the particulate or soluble fraction, 10 µ moles NADH and 150 mM potassium phosphate buffer at pH 7.0 containing 3 µ moles MgCl2 was put into separate 10 ml vials at 4°C which were sealed with a rubber cap. The gaseous phase of the vials was removed by vacuum and replaced with a gas mixture of the indicated alkane or alkene as substrate and oxygen at a 1:1 v/v ratio. The vials were then incubated at 30°C on a rotary shaker at 200 rpm for 10 minutes.

[7] = test system: Cell-Free Particulate Fraction of Arthrobacter sp. (CRL 60 P1) NRRL B-11,315; assay: Oxidation of alkenes and alkanes by cell-free particulate P(40) fraction; type: biochemical
Experimental: as §9, §10
Reactions were linear during the first 15 minutes of incubation as measured by detection of product by gas chromatography.

[8] = test system: secondary alcohol dehydrogenase; assay: Oxidation of secondary alcohols by soluble extracts (NAD+ reduction at 340 nm); type: biochemical, Arthrobacter sp. (CRL 60 P1) NRRL B-11,315; settings: substrate of soluble extracts, pH 8.0, 100% = 22 nmoles of NAD+ reduced per minute per mg of protein
Experimental: (§7) Cell suspensions of the microorganism strains identified in Table XII grown on the indicated growth substrate were disrupted with a wave energy ultrasonic oscillator Model W201 (Wave Energy System, Inc., Newton, Pa) and centrifuged at 30,000 x g for 30 min. The supernatant solution (cell extracts) was used for the oxidation of secondary alcohols. Secondary alcohol dehydrogenase activity was measured spectrophotometrically at 340 nm with oxidized nicotinamide adenine dinucleotide (NAD^+) as an electron acceptor.
(§8) The initial reaction mixture, in a total volume of 3.0 ml, consisted of 50mM phosphate buffer of pH 8.0, 5 µ moles of NAD^+, and cell extract.

[9] = test system: Arthrobacter sp. (CRL 60 Pl) NRRL B-11,315; assay: Effect of propane on oxidation of propylene to propylene oxide by cell suspensions; type: cell-based; settings: propane added to cell suspensions epoxidising propylene
From the text: as §6
The effect of propane on the oxidation of propylene to propylene oxide was studied to determine if a single enzyme system was responsible for the oxidation of both propane and propylene.

[10] = test system: secondary alcohol dehydrogenase; assay: Effect of inhibitors on oxidation of 2-butanol by cell extracts (NAD+ reduction at 340 nm); type: biochemical, Arthrobacter sp. (CRL 60 P1) NRRL B-11,315
Experimental: as §7, §8
All inhibitors were tested at lmM concentration and incubated with the soluble extracts in the reaction mixture for 15 min at 0°C. Otherwise the procedure described above was followed.

[11] = test system: Arthrobacter sp. (CRL 60 Pl) NRRL B-11,335
Experimental: as §3
Arthrobacter sp. […] Ethanol was converted to acetaldehyde (acetyl Co ~A in vivo) by primary alcohol dehydrogenase, yielding 1 mole of NADH, with subsequent oxidation of the intermediate acetyl Co ~A to carbon dioxide, yielding 3 additional moles of NADH.

[12] = test system: Cell-Free Particulate P(40) Fraction of Arthrobacter sp. (CRL 60 P1) NRRL B-11,315; assay: Effect of inhibitors on oxidation of propane and butane by cell-free particulate P(40) fraction
Experimental: as §9, §10

[13] = inhibitor 1mM, cell suspensions incubated 15 min at 4°C, propylene oxide formation by gas chromatography, uninhibited rate 0.6 μmoles/15 min/mg of protein
[14] = inhibitor 1mM, cell suspensions incubated 15 min at 4°C, acetone production by gas chromatography, uninhibited rate 1.5 μ moles/hr/mg of protein
[15] = substrate epoxidised by soluble fraction, NADH2 and oxygen, pH 7.0, 35°C
[16] = alkene substrate, epoxide product, P(40) fraction, NADH and oxygen, pH 7.0, 30°C
[17] = inhibitor 1mM, incubated with soluble extracts 15 min at 0°C, substrate 2-butanol, uninhibited activity 25 nmoles of NAD+ reduced per min per mg of protein

Compound: CC(=N)S [Thioacetamide]
- inhibition at 1000 µM [1, 13]: 68%
- inhibition at 1000 µM [2, 14]: 60%

Compound: C=CCCCCC [1-Heptene]
- Rate of Product Formation ([3]; pH 7): 0.008 μ mole/10 min./mg protein

Compound: CC1CO1 (stereo not shown) [propylene oxide]
- amount of propylene oxide ([4]; 5 µ moles added to heat-killed cell suspensions, 30°C): remained constant
- non-enzymatic degradation of propylene oxide ([4]; heat-killed cell suspensions at pH 5, 7 and 9, one hour of incubation): did not decrease
- disappearance in propylene oxide [5]: Some disappearance

Compound: c1c[nH]cn1 [Imidazole]
- inhibition [6]: 80%
- inhibition at 1000 µM [2, 14]: 80%

Compound: C=CCC [1-Butene]
- Rate of Product Formation ([3]; pH 7): 0.030 μ mole/10 min./mg protein
- Rate of Product Formation ([7]; pH 7): 0.216 μ moles/hr/mg protein

Compound: CCCCC(C)O (stereo not shown) [2-Hexanol]
- Rate of Oxidation (%) [8]: 10%

Compound: C=C [Ethylene]
- Rate of Product Formation ([3]; pH 7): 0.040 μ mole/10 min./mg protein
- Rate of Product Formation ([7]; pH 7): 0.153 μ moles/hr/mg protein

Compound: NC(N)=S [Thiourea]
- inhibition at 1000 µM [1, 13]: 12%
- inhibition at 1000 µM [2, 14]: 10%

Compound: C/C=C\C [cis-But-2-ene]
- Rate of Product Formation ([3]; pH 7): 0.018 μ mole/10 min./mg protein

Compound: NNC(=O)c1ccncc1 [Isoniazide]
- inhibition at 1000 µM [1, 13]: 35%
- inhibition at 1000 µM [2, 14]: 30%

Compound: CCCC(C)O (stereo not shown) [2-Pentanol]
- Rate of Oxidation (%) [8]: 12%

Compound: CCC [Propane]
- effect of propane on the oxidation of propylene to propylene oxide [9]: reducing the amount of propylene oxide formed
- Rate of Product Formation ([7]; alkane substrate, primary alcohol product (n-propanol, n-butanol), P(40) fraction, NADH and oxygen, pH 7.0, 30°C): 0.600 μ moles/hr/mg protein
- Rate of Product Formation ([7]; alkane substrate, secondary alcohol product (2-propanol, 2-butanol), P(40) fraction, NADH and oxygen, pH 7.0, 30°C): 0.300 μ moles/hr/mg protein

Compound: C=CCCC [1-Pentene]
- Rate of Product Formation [3, 15]: 0.025 μ mole/10 min./mg protein
- Rate of Product Formation [7, 16]: 0.195 μ moles/hr/mg protein

Compound: C=CC=C [1,3-Butadiene]
- Rate of Product Formation [3, 15]: 0.044 μ mole/10 min./mg protein

Compound: C=C(C)C [Isobutene]
- Rate of Product Formation [3, 15]: 0.046 μ mole/10 min./mg protein

Compound: O=C(O)c1cc[c]([Hg+])cc1.[OH-] [p-Hydroxymercuribenzoate]
- Inhibition (%) [10]: 95%
- Inhibition (%) Propylene-Oxidizing Activity [1, 13]: 35%
- Inhibition (%) Propane-Oxidizing Activity [2, 14]: 35%

Compound: C=Cc1ccccc1 [Styrene]
- Rate of Product Formation [3, 15]: 0.005 μ mole/10 min./mg protein

Compound: NNC(N)=S [Thiosemicarbazide]
- inhibition at 1000 µM [1, 13]: 12%
- inhibition at 1000 µM [2, 14]: 10%

Compound: C=CC [Propylene]
- Rate of Product Formation [3, 15]: 0.052 μ mole/10 min./mg protein
- Rate of Product Formation [7, 16]: 0.360 μ moles/hr/mg protein

Compound: CCO [ethanol]
- Epoxidation Rate (rate of propylene oxide formation) ([11]; 5 μmole ethanol, 1 hr., control 2.5): 2.9 μ mole/0.5 ml.
- Epoxidation Rate (rate of propylene oxide formation) ([11]; 5 μmole ethanol, 2 hr., control 3.8): 5.6 μ mole/0.5 ml.
- Epoxidation Rate (rate of propylene oxide formation) ([11]; 5 μmole ethanol, 3 hr., control 3.9): 6.5 μ mole/0.5 ml.
- Epoxidation Rate (rate of propylene oxide formation) ([11]; 25 μmole ethanol, 1 hr., control 2.5): 2.4 μ mole/0.5 ml.
- Epoxidation Rate (rate of propylene oxide formation) ([11]; 25 μmole ethanol, 2 hr., control 3.8): 5.2 μ mole/0.5 ml.
- Epoxidation Rate (rate of propylene oxide formation) ([11]; 25 μmole ethanol, 3 hr., control 3.9): 6.5 μ mole/0.5 ml.

Compound: CCCCCC(C)O (stereo not shown) [2-Heptanol]
- Rate of Oxidation (%) [8]: 4%

Compound: c1cnc2c(c1)ccc1cccnc12 [1,10-Phenanthroline]
- Inhibition (%) [10, 17]: 80%
- inhibition at 1000 µM [1, 13]: 90%
- inhibition at 1000 µM [2, 14]: 80%

Compound: 2-Butanol
- Rate of Oxidation (%) [8]: 100%

Compound: α,α-Bipyridyl
- Inhibition (%) Propylene-Oxidizing Activity [1]: 32%
- Inhibition (%) Propane-Oxidizing Activity [2]: 30%
- Inhibition (%) [12]: 32%

Compound: CCN1C(=O)C=CC1=O [N-Ethylmaleimide]
- Inhibition (%) [10, 17]: 30%
- inhibition at 1000 µM [1, 13]: 81%
- inhibition at 1000 µM [2, 14]: 70%

Compound: NO [Hydroxylamine]
- Inhibition (%) Propylene-Oxidizing Activity [1, 13]: 83%
- Inhibition (%) Propane-Oxidizing Activity [2, 14]: 70%

Compound: CC(C)O [Isopropanol]
- Rate of Oxidation (%) [8]: 65%

Compound: C/C=C/C [trans-But-2-ene]
- Rate of Product Formation ([3]; pH 7): 0.022 μ mole/10 min./mg protein
